Measurements: US11883441B2, “Compositions and methods for inhibiting seizures” (The Regents of the University of California, priority 2016, dated 2024)

What was measured:
A. muciniphila = assay: Cross-feeding in vitro assay, A. muciniphila growth; format: cell-based, Akkermansia muciniphila; conditions: exposed to P. merdae pre-treated with 500 uM for 2 hours; 24 hours after incubation; vs vehicle-treated P. merdae
Experimental: (§1) Cross-feeding was measured as previously described. A. muciniphila was embedded at 2×10^6 cfu/ml in 5 ml pre-reduced CD or KD-based liquid media supplemented with 1% agar at the bottom of an anaerobic tube, and P. merdae was overlaid above it at 6×10^6 cfu/ml in 5 ml pre-reduced M9 minimal media. Diet-based media were generated by aseptically suspending mouse KD vs. CD diets, described above, to 2 kcal/ml in M9 media. Pilot experiments confirmed no ectopic translocation of embedded A. muciniphila from the agar compartment into the above M9 liquid compartment. For each time point, aliquots were taken from the top and bottom compartments, plated in a dilution series in rich media (RCM for P. merdae and BHI+0.05% mucins for A. muciniphila), and colonies were counted. For GGsTop pre-treatment experiments, P. merdae was incubated with 500 uM GGsTop vs vehicle in RCM media at 37° C. for 2 hours and then washed with sterile media.

[1] = test system: gamma-glutamyltranspeptidase (GGT); assay: GGT activity assay in fecal samples; format: biochemical; conditions: fecal samples exposed in vitro, 500 uM
Experimental: GGT activity was measured as previously described in van der Stel, Frontiers in Microbiology (6), 567 (2015). For anaerobic cultures, bacteria were seeded at 3×10^5 cfu/ml in CD- and KD-based media. 1 ml bacterial suspension was pelleted and frozen at −80° C. for 1 hr. Separate aliquots of the same suspension were plated in BHI mucin agar media or RCM and incubated at 37° C. in a Coy anaerobic chamber for later data normalization by bacterial cfu. Pellets were then resuspended in 250 ul lysis buffer (50 mM Tris-HCl with 1 ug/ml lysozyme) and incubated on ice for 30 min. For fecal samples, one pellet was weighed and homogenized in 1 ml lysis buffer. Bacterial and fecal suspensions were then sonicated (QSonica 125) and centrifuged at 12000×g for 10 min at 4° C. […] Absorbance at 405 nm denoting production of 3-carboxy-4-nitroaniline was measured every minute for 1 hr at 37° C. using an automated multimode plate reader (Biotek Synergy H1).
To gain insight into whether the KD and interactions between A. muciniphila and Parabacteroides spp. suppressed bacterial gamma-glutamylation in vivo, GGT activity was measured in fecal samples collected from SPF or A. muciniphila and Parabacteroides spp.-enriched mice fed the CD or KD.

P. merdae = assay: Cross-feeding in vitro assay, P. merdae growth and viability; format: cell-based; conditions: pre-treatment 500 uM, 2 hours, pilot experiments
Experimental: as §1

Kcna1−/− mice = assay: Kcna1 seizure recordings (EEG); format: in vivo, mouse; conditions: CD-fed SPF Kcna1−/− mice; 13.3 mg/kg oral gavage every 12 hours
Experimental: EEG Implantation and Recovery. EEGs were recorded from male and female Kcna1^−/− mice at 6-7 weeks of age. Kcna1^+/+ littermates were used as controls. […] Data presented include both sexes. Mice were anesthetized with isoflurane (5% induction, 2% maintenance) and eye ointment applied to each eye. Fur was removed along the head, and the area was cleaned with three alternative scrubs of chlorohexidine and 70% isopropanol. In a biosafety cabinet, mice were positioned in a stereotaxic apparatus (Harvard Biosciences) and 1 mg/kg lidocaine+1 mg/kg bupivacaine was applied locally along the incision site. […]
During EEG recordings animals were freely moving and maintained on experimental diet. […] Simultaneous video recordings of behavioral seizures were correlated with EEG recordings and scored based on an adapted Racine scale and defined by 5 stages: 1) myoclonic jerk, 2) head stereotypy and facial clonus, 3) bilateral and alternating forelimb/hindlimb clonus, 4) rearing and falling, and 5) generalized tonic-clonic episodes. Data were analyzed by a blinded researcher using Neuroscore CNS Software (DSI). EEG signals were filtered using a 10 Hz high pass filter, and seizure events were detected by blinded manual scoring. […]
For wild type mice: 4-week old SPF Swiss Webster mice were fed CD ad libitum for 14 days. […] Seizures were recorded over 3 days by EEG beginning 2 hours after the final gavage. […]

Swiss Webster mice = assay: 6-Hz psychomotor seizure assay; format: in vivo, mouse
Experimental: All subsequent experimental cohorts contained male mice. One drop (˜50 ul) of 0.5% tetracaine hydrochloride ophthalmic solution was applied to the corneas of each mouse 10-15 min before stimulation. Corneal electrodes were coated with a thin layer of electrode gel (Parker Signagel). A constant-current current device (ECT Unit 57800, Ugo Basile) was used to deliver current at 3 sec duration, 0.2 ms pulse-width and 6 pulses/s frequency. CC50 (the intensity of current required to elicit seizures in 50% of the experimental group) was measured as a metric for seizure susceptibility. […] Each mouse was seizure-tested only once, and thus at least n>6 mice were used to adequately power each experiment group. To determine CC50s for each experimental group, 24 mA currents were administered to the first mouse per experimental group per cohort, followed by fixed increases or decreases by 2 mA intervals. […] Locomotor behavior was recorded using Ethovision XT software (Noldus) and quantitative measures for falling, tail dorsiflexion (Straub tail), forelimb clonus, eye/vibrissae twitching and behavioral remission were scored manually. […] Latency to exploration (time elapsed from when an experimental mouse is released into the observation cage (after corneal stimulation) to its first lateral movement) was scored using Ethovision and manually with an electronic timer. […]

Molecule	A. muciniphila growth (A. muciniphila)	GGT activity signal of fecal samples [1]	P. merdae viability (P. merdae)	Seizures per day (Kcna1−/− mice)	Seizure threshold (Swiss Webster mice; SPF CD mice gavaged for 3 days, 13.3 mg/kg every 12 hours)	Protection against 6-Hz seizures / seizure threshold (Swiss Webster mice; Abx-treated SPF mice gavaged with 10^9 cfu bacteria, fed KD, tested at 14 days)
COP(=O)(CCC(N)C(=O)O)Oc1cccc(CC(=O)O)c1 (stereo not drawn) [GGsTop, 3-[[(3-amino-3-carboxypropyl)methoxyphosphinyl]oxy]benzeneacetic acid]	increased growth	eliminated the detected signals	no significant effect	significant decrease in seizures per day	increases in seizure thresholds	
Bifidobacterium longum						no effect
